Assay [1] concerns Bifidobacterium. Nature of the assay: Microbiome composition by shotgun sequencing: Bifidobacterium (first set). Type of assay: cell-based, human. The following applies: after 24 h fermentation, vs corresponding control. On the procedure:
(§1) Since ethanol is known to have antimicrobial effects, two blanks for each type of stock solution were included. As a source of the microbial community, a freshly prepared fecal suspension from the selected donor was added to the reactors. […] All tests, except the blanks, were performed in single repetition, resulting in 40 independent incubations, as specified in Table 1. Incubation conditions of the pre-screening experiment and the final experiment were 48 h at 37° C., under shaking (90 rpm) and anaerobic conditions. DNA were extracted from effluent samples collected from each fermentation flask before (0 h fermentation) and after fermentation (24 h fermentation) and use for microbiome composition analysis by Shotgun sequencing. Effluent samples were collected from each fermentation flask before (0 h fermentation) and after fermentation (48 h fermentation), sterilized by filtering through 0.22 μm filters and used for short chain fatty acids (SCFA), quantification of immunological biomarkers and in vitro analysis in cell culture systems.
(§2) For the first set of in vitro experiments, total DNA was extracted from all samples collected throughout the study using the QIAamp DNA stool minikit (Qiagen, Crawley, United Kingdom) according to the manufacturer's instructions, apart from addition of a bead-beating step and increasing the lysis temperature to 95° C. as described previously (McCormack et al., 2018).
(§3) After DNA isolation, DNA was quantified using the Qubit High Sensitivity DNA assay (Thermo Fisher). Whole metagenome libraries were then prepared using the Illumina Nextera XT kit (Illumina) in accordance with the manufacturer's instructions, with the following modifications: Firstly, tagmentation time was increased to 7 min and secondly, following incorporation of indices and Ampure purification of the products, the samples were each individually sized by running on an Agilent High Sensitivity Chip (Agilent) and quantified using the Qubit High Sensitivity DNA assay (Thermo Fisher) in accordance with Teagasc Sequencing Platform SOPs. The samples were then pooled equimolarly and sequenced on the Illumina NextSeq 500 with a NextSeq 500/550 v2 high-output reagent kit (300 cycles). All sequencing was done in the Teagasc sequencing facility in accordance with standard Illumina sequencing protocols.
(§4) Delivered raw FASTQ sequence files were quality checked as follows: poor quality and duplicate read removal, as well as trimming was implemented using a combination of SAM and Picard tools. Taxonomy was assigned to the reads using the Kraken software and functional analysis was performed with Super focus.

Assay [2] deals with HT29 cells. The assay is described as follows: HT29 cell culture, quantification of immunological biomarkers. Type of assay: cell-based. The following applies: effluent from 24 h fermentation, vs corresponding control. On the procedure: as §1, with “([…]), […]” for “(0 h fermentation) and after fermentation (48 h fermentation), sterilized by filtering through 0.22 μm filters and used for short chain fatty acids (SCFA), quantification of immunological biomarkers and in vitro analysis in”
For both sets of in vitro experiments, HT29 cells were obtained from American Type Culture Collection (Manassas, VA). Cells were cultured in DMEM supplemented with 10% fetal bovine serum (FBS), 50 units/ml penicillin, 50 μg/ml streptomycin, L-glutamine, and nonessential amino acids (Life Technologies Europe B.V., Zug, Switzerland). Cells were seeded into 12-well plates at 8×10^5 cells per well and used after 2 days of preculture. They were starved in DMEM containing 0.25% FBS for 18 h before treatment. Cells were treated for 24 hours with TNF-α at 100 ng/mL or fermentation supernatants which were sterile filtered and diluted 1:20 in DMEM containing 0.25% FBS. All treatments were done in triplicate. Consequently, cytokines, chemokines and interleukins were quantified in HT29 supernatants using the Luminex Technology (LiquiChip Workstation IS 200, Qiagen, Hilden, Germany) with Bio-Plex Pro Human Cytokine Panel kits (Bio-Rad, Hercules, CA) or with Luminex Screening Assay kits (R&D Systems, Inc., Minneapolis, MN), following the manufacturer's instructions. The data were acquired with the Luminex IS 2.3 software and evaluated with the LiquiChip Analyser software (Qiagen, Hilden, Germany).

The subject of assay [3] is genes involved in Acetyl-CoA fermentation to Butyrate pathway. Nature of the assay: Shotgun sequencing functional analysis: butyrate pathway genes (first set). As to conditions: after 24 h fermentation, vs corresponding control. Type of assay: cell-based, human. On the procedure:
as §1, §2, §3, §4

In assay [4] the test system is Co-cultures of Caco-2 and HT29-MTX-E12 cells. Nature of the assay: Barrier integrity, leaky gut model, apical stressor Rhamnolipids. Type of assay: cell-based. As to conditions: vs corresponding control; for TEER, apical induction of leaky gut cellular model: 48 h minus 0 h fermentation samples; for Lucifer yellow, apical induction of leaky gut cellular model: 48 h fermentation samples.
Protocol: Since ethanol is known to have antimicrobial effects, two blanks for each type of stock solution were included. As a source of the microbial community, a freshly prepared fecal suspension from the selected donor was added to the reactors. […] All tests, except the blanks, were performed in single repetition, resulting in 40 independent incubations, as specified in Table 1. Incubation conditions of the pre-screening experiment and the final experiment were 48 h at 37° C., under shaking (90 rpm) and anaerobic conditions. […] Effluent samples were collected from each fermentation flask before (0 h fermentation) and after fermentation (48 h fermentation), sterilized by filtering through 0.22 μm filters and used for short chain fatty acids (SCFA), quantification of immunological biomarkers and in vitro analysis in cell culture systems.
Co-cultures of Caco-2 and HT29-MTX-E12 cells were used to assess the protective effect of the supernatants before (0 h) and after fermentation (48 h) for both sets of in vitro experiments above.
CaCo-2 ECACC 86010202 and HT29-MTX-E12 ECACC 12040401 cells (both from European Collection of Cell Cultures, Salisbury, UK) were both cultured at 37° C., in atmosphere of 5% CO2 in DMEM medium supplemented with 4.5 g/L D-Glucose, 4 mM L-Glutamine, 1 mM Sodium Pyruvate, 1% MEM Non-Essential Amino Acids, 50 μg/mL Gentamicin (Life Technologies Europe B.V., Zug, Switzerland) and 10% heat-inactivated FBS (Sigma-Aldrich, Buchs, Switzerland). Sub-confluent cells were trypsinized using 0.25% Trypsin/EDTA (Life Technologies Europe B.V., Zug, Switzerland) and passaged at a ratio of 1:5-1:10 twice a week. Cells between passages 55 and 85 were used for this study.
Cells were seeded at a density of 20000 cells/well in a 7:3 ratio (Caco-2:HT29-MTX-E12) in Corning HTS Transwell-24 system PET membranes, 0.4 μM pore size, cell growth area 0.33 cm2/well (Corning BV, Amsterdam, Netherlands) and cultured as described above. Media was changed every second to third day.
For both sets of in vitro experiments, the integrity of cell monolayers after the stressor test was evaluated by both TEER values and by measuring the transport of Lucifer yellow from apical to basolateral compartments (Leaky gut model). A prewarmed HBSS transport buffer composed of Hank's Balanced Salt Solution pH 7.4 with Ca2+ and Mg2+, containing 5.5 mM D-(+)-glucose, Sodium Bicarbonate, and supplemented with 4 mM L-glutamine, 20 mM HEPES (Life Technologies Europe B.V., Zug, Switzerland) was used for all permeability experiments. The inserts were rinsed twice with HBSS using a reservoir tray, 100 μl HBSS were then added to the apical site of the inserts and subsequently moved to new wells with fresh HBSS and allowed to equilibrate at 37° C. for 60 min in the incubator followed by TEER measurement to obtain baseline resistance readings.
Lucifer Yellow CH dilithium salt (Sigma-Aldrich, Buchs, Switzerland) was dissolved in HBSS at a final concentration of 100 μg/ml. Basolateral stressor EtOH (Merck, KgaA, Darmstadt, Germany) was diluted to 5% in HBSS. Apical Stressor Rhamnolipids R90 (AGAE Technologies, Corvallis, USA) was dissolved in HBSS containing Lucifer Yellow at a final concentration of 350 μg/ml. All solutions were prepared freshly each time.
The HBSS transport buffer from the basolateral chamber was aspirated first, then the HBSS from the apical chamber and replaced with Lucifer yellow solution. For the apical stressor test, Lucifer yellow solution containing 350 μg/ml Rhamnolipids or Lucifer yellow solution without stressor for the control wells was loaded into the apical compartment, blank HBSS was subsequently added to the basolateral chamber.

For assay [5], the system named is fecal suspension from the selected donor. The assay is described as follows: Intestinal batch fermentation, SCFA production (first set). Type of assay: cell-based, human. The following applies: after 48 h fermentation, vs corresponding control. On the procedure: In a first set of in vitro experiments at the start of intestinal batch fermentation incubation, all test ingredients were added from stock solutions to the modified nutritional medium, containing (g/l): 2.5 K2HPO4, 10.9 KH2PO4, 2 NaHCO3, 2 yeast extract, 2 peptone, 1 mucin, 0.5 cysteine, 2 Tween 80, 2 glucose, 2 starch, 2 cellobiose, 0.1 NaCl, 0.01 MgSO4·7H2O, 0.01 CaCl2·6H2O, 0.05 hemin, 0.5 bile salts.
The other compounds were prepared in ethanol: • Vitamin K1 (VK1), • MEG-3 0080 EE Oil (MEG-3 0080 EE), • MEG-3 4535 EE Oil (MEG-3 4535 EE), • MEG-3 8000 EE Oil (MEG-3 8000 EE).
as §1
Short chain fatty acids (SCFA) are an assessment of the microbial carbohydrate metabolism (acetate, propionate and butyrate) or protein metabolism (branched SCFA) and can be compared to typical fermentation patterns for normal GI microbiota. Samples for SCFA analysis were analyzed after 0, 6, 24 and 48 h of incubation for both set of in vitro experiments, above.
SCFA were extracted from the samples with diethyl ether, after the addition of 2-methyl hexanoic acid as an internal standard. Extracts were analysed using a GC-2014 gas chromatograph (Shimadzu's-Hertogenbosch, the Nether-lands), equipped with a capillary fatty acid-free EC-1000Econo-Cap column (dimensions: […]×0.53 mm, film thickness […]; Alltech, Laarne, Belgium), a flame ionization detector and a split injector. The injection volume was […] and the temperature profile was set from 110 to 160° C., with a temperature increase of 6° C. min-1. The carrier gas was nitrogen and the temperature of the injector and detector were […] and 220° C., respectively. The production of unbranched and branched SCFA was calculated by summing the molar concentrations of acetate, propionate, butyrate, valerate and caproate, and summing isobutyrate, isovalerate and isocaproate molar concentrations, respectively. The total SCFA production was defined as the sum of unbranched and branched SCFA.

Assay [6] deals with fecal microbial community. The assay is described as follows: Microbiome composition by shotgun sequencing: alpha diversity (first set). Type of assay: cell-based, human. As to conditions: after 24 h fermentation, vs corresponding control. On the procedure: as §1, §2, §3, §4

With `CC(=O)OC/C=C(C)/C=C/C=C(C)/C=C/C1=C(C)CCCC1(C)C` [Vitamin A], the Bifidobacterium relative abundance entry in assay [1] (1× dose) was “increase Bifidobacterium relative abundance”. Besides, the “IL-8 production by HT29 cells” value in assay [2] (0.2× dose) and in assay [2] (5× dose) was “increase IL-8 production” in each case. Besides, the “MIP3A-CCL20 production by HT29 cells” value in assay [2] (0.2× dose), in assay [2] (1× dose) and in assay [2] (5× dose) was “increase MIP3A-CCL20 production” throughout. The “relative abundance of genes involved in Acetyl-CoA fermentation to Butyrate pathway” value (from here on “relative abundance of genes involved”) in assay [3] (1× dose) and in assay [3] (5× dose) was “increase relative abundance” each time. In addition, the “TEER, apical induction of leaky gut cellular model” value in assay [4] (0.2× dose), in assay [4] (1× dose) and in assay [4] (5× dose) was “increase TEER” each time. Moreover, the “Lucifer yellow, apical induction of leaky gut cellular model” value in assay [4] (1× dose) and in assay [4] (5× dose) was “decrease Lucifer yellow” throughout. Besides, the butyrate production entry in assay [5] (0.2× dose), in assay [5] (1× dose) and in assay [5] (5× dose) was “increase butyrate production” each time. For the same compound, the propionate production entry in assay [5] (0.2× dose), in assay [5] (1× dose) and in assay [5] (5× dose) was “increase propionate production” in each case. In addition, the “total SCFAs production” value in assay [5] (0.2× dose) and in assay [5] (5× dose) was “increase total SCFAs production” each time. Moreover, in assay [5] (1× dose), the acetate production result is “increase acetate production”. In addition, the “microbiome alpha diversity (Shannon diversity index)” value in assay [6] (1× dose) and in assay [6] (5× dose) was “increase microbiome diversity” each time.
For `C=C1CC[C@H](O)C/C1=C/C=C1\CCC[C@]2(C)[C@@H]([C@H](C)CCCC(C)C)CC[C@@H]12` [Vitamin D, Vitamin D3], the Bifidobacterium relative abundance result in assay [1] (0.2× dose) and in assay [1] (5× dose) was “increase Bifidobacterium relative abundance” each time. Also, the “MIP3A-CCL20 production by HT29 cells” value in assay [2] (0.2× dose), in assay [2] (1× dose) and in assay [2] (5× dose) was “increase MIP3A-CCL20 production” each time. Moreover, in assay [3] (0.2× dose), the “relative abundance of genes involved” value is given as “increase relative abundance”. Also, the “TEER, apical induction of leaky gut cellular model” value in assay [4] (5× dose) is “increase TEER”. The butyrate production entry in assay [5] (0.2× dose) and in assay [5] (1× dose) was “increase butyrate production” each time. The propionate production entry in assay [5] (1× dose) and in assay [5] (5× dose) was “increase propionate production” in each case. Besides, the “total SCFAs production” value in assay [5] (1× dose) and in assay [5] (5× dose) was “increase total SCFAs production” in each case. Also, the “microbiome alpha diversity (Shannon diversity index)” value in assay [6] (0.2× dose) and in assay [6] (5× dose) was “increase microbiome diversity” in each case.
On to `CC1=C(C/C=C(\C)CCC[C@H](C)CCC[C@H](C)CCCC(C)C)C(=O)c2ccccc2C1=O` [Vitamin K1], for which the Bifidobacterium relative abundance result in assay [1] (0.2× dose) is on record as “increase Bifidobacterium relative abundance”. Besides, the “IL-8 production by HT29 cells” value in assay [2] (0.2× dose) was “increase IL-8 production”. The “MIP3A-CCL20 production by HT29 cells” value in assay [2] (0.2× dose), in assay [2] (1× dose) and in assay [2] (5× dose) was “increase MIP3A-CCL20 production” throughout. In addition, the “relative abundance of genes involved” value in assay [3] (0.2× dose), in assay [3] (1× dose) and in assay [3] (5× dose) was “increase relative abundance” throughout. The “Lucifer yellow, apical induction of leaky gut cellular model” value in assay [4] (0.2× dose) is reported as “decrease Lucifer yellow”. The acetate production result in assay [5] (0.2× dose), in assay [5] (1× dose) and in assay [5] (5× dose) was “increase acetate production” in each case. For the same compound, the butyrate production result in assay [5] (0.2× dose), in assay [5] (1× dose) and in assay [5] (5× dose) was “increase butyrate production” in each case. Moreover, the propionate production entry in assay [5] (0.2× dose), in assay [5] (1× dose) and in assay [5] (5× dose) was “increase propionate production” in each case. Also, the “total SCFAs production” value in assay [5] (0.2× dose), in assay [5] (1× dose) and in assay [5] (5× dose) was “increase total SCFAs production” in each case. In addition, the “microbiome alpha diversity (Shannon diversity index)” value in assay [6] (0.2× dose), in assay [6] (1× dose) and in assay [6] (5× dose) was “increase microbiome diversity” in each case.

The values above are taken from patent US12508280B2, “Formulations for improving gut health” (DSM IP ASSETS B.V., priority 2018, dated 2025).
